Measurements as given in patent US12497359B2, “Acrylamide derivatives” (NRG Therapeutics Ltd, priority 2020, dated 2025).
≈ marks a conversion by molar mass, not a printed value. Counter-ions that a name gives are not always drawn.

Key:
mPTP = mPTP activity assay in isolated rat liver mitochondria (Ca2+ retention, Fluo5N, FLIPR); format: biochemical; details: isolated rat liver mitochondria; average value from multiple experiments (n ≥ 2)
Text: Pharmacological inhibition or modulation of the mPTP can be measured in well characterised ‘Ca^2+ retention’ assays performed in isolated mitochondria. In vitro, isolated mitochondria rapidly sequester exogenous Ca^2+ until the intramitochondrial Ca^2+ concentration reaches the threshold for mPTP activation. Once the pore is activated, mitochondrial integrity is compromised and the stored Ca^2+ is released. The distribution of Ca^2+ between extra- and intra-mitochondrial compartments can be measured in real time with the use of membrane-impermeant Ca^2+ sensitive fluorescent dyes. Depending on the configuration of the assay, inhibition or modulation of the mPTP either delays the opening of the pore or increases the concentration of Ca^2+ required to induce mPTP opening.
mPTP activity was measured in mitochondria freshly isolated from female Sprague Dawley (250 to 300 gram) rat livers using the following method. Cervical dislocation was performed on the rat. The liver was then perfused in-situ with ˜40 ml cold Dulbecco's Phosphate Buffered Saline (DPBS) prior to dissection and transferred into 30 ml Isolation Buffer (250 mM Sucrose, 10 mM KCl, 1 mM EGTA, 1 mM EDTA, 25 mM HEPES, adjusted to pH 7.5 with 1 M NaOH). Each lobe of the liver was then removed from the buffer, minced using tweezers and a scalpel into ˜5 mm pieces then transferred into a 50 ml Potterton dounce homogenization tube on ice containing 30 ml ice-cold centrifugation buffer (300 mM Trehalose, 25 mM HEPES, 1 mM EGTA, 1 mM EDTA, 10 mM KCl, adjusted to pH 7.5 with 1 M NaOH and supplemented with 0.1% bovine serum albumin (BSA) and complete protease inhibitor cocktail (one tablet of inhibitor per 50 mls of buffer). Homogenisation was carried out using a teflon pestle at 1800 rpm. The slurry was centrifuged at 800 g for 10 min at 4° C., then the supernatant centrifuged at 10,000 g for 10 min. The pellet was washed once with FLIPR assay buffer (75 mM Mannitol, 25 mM Sucrose, 5 mM Potassium Phosphate Monobasic, 20 mM Tris base, 100 mM KCl, 0.1% BSA adjusted to pH 7.4 with 5 M HCl) centrifuged again, then resuspended in FLIPR assay buffer to a concentration of 8.8 mg/ml protein.
Test compounds (10 mM stock in DMSO) were serially diluted in DMSO in half log steps to generate 10 test concentrations (final concentrations in assay 30 μM to 1 nM). An intermediate dilution of 5 μl DMSO samples into 247 μl FLIPR assay buffer was carried out prior to transfer of 5 μl into duplicate wells of a 384 well polypropylene assay plate. Control wells were 0.5% (v/v) DMSO and 5 μM cyclosporin A.
A stock mitochondria/Fluo5N assay solution was prepared in 5.6 ml FLIPR assay buffer (at RT) supplemented with succinate disodium salt (10 mM), rotenone (1 μM), Fluo5N pentapotassium salt (2 μM) and 1 ml mitochondria suspension, then transferred (15 μl) into the assay plate containing test compounds and incubated for 10 min at RT. Assay plates were then transferred to a FLIPR Tetra plate reader (Molecular Devices). Dye fluorescence was then measured every 3 sec for a total of 10 min. After 12 sec, a 2.5 μl bolus of CaCl2 (75 μM) was added from a source plate containing 675 μM CaCl2 in FLIPR assay buffer. IC50 values for test compounds were calculated using the fluorescence value collected at the 10 min timepoint with % inhibition calculated using the DMSO control and cyclosporin A values as […] respectively.

[1] = Hepatocyte clearance assay, rat; format: in vitro ADME; details: cryopreserved primary rat hepatocytes, average value from two experiments, read-out: Rat heps intrinsic clearance (CLint)
Method: In vitro clearance studies were performed in primary rat and human hepatocytes (BioIVT). Vials of cryopreserved rat or human hepatocytes were thawed in a 37° C. water bath for 2 min. Cells were transferred into thawing medium (Williams' Medium E containing 30% Percoll, 1× GlutaMAX-1, 15 mM HEPES, 5% fetal bovine serum (FBS), 4 μg/ml insulin, 1 μM dexamethasone), centrifuged at 100 g for 10 min then resuspended in culture medium (Leibovitz's L-15 Medium) at a concentration of 0.5×10^6 viable cells/mL (number of viable cells assessed using AO/PI staining). Hepatocytes (198 μL) were transferred into wells of a 96-well non-coated plate and placed in a 37° C. incubator for 10 min. Test compound solutions were prepared from 10 mM stocks in DMSO, diluted to 100 μM in 50% (v/v in water) acetonitrile. Test compound samples (2 μl) were added to each well of hepatocytes and incubated at 37° C. Samples (25 μl) were collected at t=0, 15, 30, […] and 120 min, mixed with 6 volumes (150 μl) of acetonitrile containing internal standard (100 nM alprazolam, 200 nM caffeine and 100 nM tolbutamide), vortexed for 5 min and centrifuged for 45 min at 3220 g. An aliquot of supernatant (100 μL) was diluted with 100 μL ultra-pure water, and the mixture was used for LC/MS/MS analysis. All incubations were performed in duplicate. Peak areas were determined from extracted ion chromatograms. The slope value, k, was determined by linear regression of the natural logarithm of the remaining percentage of the parent drug vs. incubation time curve. The in vitro half-life (in vitro t1/2) was determined from the slope value: in vitro t1/2=0.693/k. Conversion of the in vitro t1/2 (in min) into the in vitro intrinsic clearance (in vitro CLint, in μL/min/1×10^6 cells) was done using the following equation (mean of duplicate determinations): • in vitro CLint=kV/N • V=incubation volume (0.2 mL) • N=number of hepatocytes per well (0.1×10^6 cells). Microsomal Clearance Assay

PBS solubility = format: physicochemical; details: aqueous buffer, kinetic from dmso stock; PBS pH 7.4, 2 hr at 25° C.
Method: Test compounds were prepared as 10 mM stocks in DMSO and 15 μl samples transferred in duplicate into 1.5 mL glass flat bottom vials (BioTech Solutions). Fasted state simulated intestinal fluid (FaSSIF) or PBS (pH 7.4) was added to each vial to final volume of 500 μl. One PTFE encapsulated stir stick (V&P Scientific) was placed in each vial before sealing with PTFE/SIL plugs (BioTech Solutions). Vials were shaken at 1100 rpm for 2 hr at 25° C. Samples were then filtered through MultiScreen Solvinert filter plates (Millipore) via vacuum filtration. Aliquots of filtrate (5 μl) plus 5 μl DMSO were diluted in 490 μl 50% acetonitrile in water containing internal standard. The filtrate was analysed and quantified against a standard of known concentration using LC-MS/MS. Solubility values of the test compound and control compound were calculated as follows: [Sample]=(Area ratiosample*INJ VOL STD*DFsample*[STD])/(Area ratio STD*INJ VOLsample).

Row | SMILES | mPTP Rat liver pIC50* (mPTP) | hepatocyte CLint at 1 µM [1] [µL/min/1e6 cells] | solubility at 2 h (PBS solubility) [µM]
1 | O=C(/C=C/c1ccc2cn[nH]c2c1)N[C@@H]1C[C@@H](F)c2ccccc21 (single isomer, unassigned) [Example 25] | 6.6 | – | –
2 | O=C(/C=C/c1ccc2cn[nH]c2c1)Nc1cccc(Cl)c1 [Example 22, (E)-N-(3-chlorophenyl)-3-(1H-indazol-6-yl)acrylamide] | 6.4 | – | –
3 | O=C(/C=C/c1cc2[nH]ncc2cc1Cl)NC1CCc2ccccc21 (stereo not shown) [Example 12, (E)-3-(5-chloro-1H-indazol-6-yl)-N-(2,3-dihydro-1H-inden-1-yl)acrylamide] | 6.0 | – | –
4 | O=C(/C=C/c1ccc2cn[nH]c2c1)Nc1ccccc1CO [Example 27, (E)-N-(2-(hydroxymethyl)phenyl)-3-(1H-indazol-6-yl)acrylamide] | 6.8 | – | –
5 | CC1Cc2ccccc2C1NC(=O)/C=C/c1ccc2cn[nH]c2c1 (stereo not shown) [Example 14, (E)-3-(1H-indazol-6-yl)-N-(2-methyl-2,3-dihydro-1H-inden-1-yl)acrylamide] | 7.3 | – | –
6 | O=C(/C=C/c1ccc2cn[nH]c2c1)N[C@@H]1C[C@H](F)c2ccccc21 (single isomer, unassigned) [Example 26] | 6.2 | – | –
7 | O=C(/C=C/c1cc2[nH]ncc2cc1F)NC1CCc2ccccc21 (stereo not shown) [Example 10, (E)-N-(2,3-dihydro-1H-inden-1-yl)-3-(5-fluoro-1H-indazol-6-yl)acrylamide] | 7.6 | 60 | –
8 | O=C(/C=C/c1ccc2cn[nH]c2c1)Nc1cccc2cnn(Cc3ccccc3)c12 [Example 19, (E)-N-(1-benzyl-1H-indazol-7-yl)-3-(1H-indazol-6-yl)acrylamide] | 7.6 | 179 | 0.08 (≈ 0.0315 µg/mL)
9 | CC1COc2ccccc2C1NC(=O)/C=C/c1ccc2cn[nH]c2c1 (stereo not shown) [Example 15, (E)-3-(1H-indazol-6-yl)-N-(3-methylchroman-4-yl)acrylamide] | 6.9 | 20 | 5.9 (≈ 1.97 µg/mL)
10 | Cn1ncc2cccc(NC(=O)/C=C/c3ccc4cn[nH]c4c3)c21 [Example 20, (E)-3-(1H-indazol-6-yl)-N-(1-methyl-1H-indazol-7-yl)acrylamide] | 7.5 | 10 | 1.3 (≈ 0.413 µg/mL)
11 | Cc1cccc(F)c1NC(=O)/C=C/c1ccc2cn[nH]c2c1 [Example 33, (E)-N-(2-fluoro-6-methylphenyl)-3-(1H-indazol-6-yl)acrylamide] | 7.0 | – | –
12 | O=C(/C=C/c1ccc2cn[nH]c2c1)Nc1cccc(F)c1 [Example 23, (E)-N-(3-fluorophenyl)-3-(1H-indazol-6-yl)acrylamide] | 5.9 | – | –
13 | O=C(/C=C/c1ccc2cn[nH]c2c1)Nc1ccccc1COC1CCC1 [Example 18, (E)-N-(2-(cyclobutoxymethyl)phenyl)-3-(1H-indazol-6-yl)acrylamide] | 6.7 | – | –
14 | CC1CC(NC(=O)/C=C/c2ccc3cn[nH]c3c2)c2ccccc21 (stereo not shown) [Example 39, (E)-3-(1H-indazol-6-yl)-N-(3-methyl-2,3-dihydro-1H-inden-1-yl)acrylamide] | 5.8 | – | –
15 | O=C(/C=C/c1cc2[nH]ncc2cn1)NC1CCc2ccccc21 (stereo not shown) [Example 35, (E)-N-(2,3-dihydro-1H-inden-1-yl)-3-(1H-pyrazolo[4,3-c]pyridin-6-yl)acrylamide] | 5.7 | – | –
16 | Cc1cccc2c1C(NC(=O)/C=C/c1ccc3cn[nH]c3c1)CC2 (stereo not shown) [Example 38, (E)-3-(1H-indazol-6-yl)-N-(7-methyl-2,3-dihydro-1H-inden-1-yl)acrylamide] | 5.0 | – | –
17 | C#CCOCc1ccccc1NC(=O)/C=C/c1ccc2cn[nH]c2c1 [Example 40, (E)-3-(1H-indazol-6-yl)-N-(2-((prop-2-yn-1-yloxy)methyl)phenyl)acrylamide] | 7.1 | – | –
18 | C[C@@H]1CCCC[C@H]1NC(=O)/C=C/c1ccc2cn[nH]c2c1 (single isomer, unassigned) [Example 4a] | 6.5 | – | –
19 | O=C(/C=C/c1ccc2cn[nH]c2c1)Nc1ccccc1COc1ccccc1 [Example 17, (E)-3-(1H-indazol-6-yl)-N-(2-(phenoxymethyl)phenyl)acrylamide] | 6.9 | – | –
20 | C[C@@H]1CCCC[C@H]1NC(=O)/C=C/c1ccc2cn[nH]c2c1 (single isomer, unassigned) [Example 4b] | 6.3 | – | –
21 | C[C@@H]1Cc2ccccc2[C@H]1NC(=O)/C=C/c1ccc2cn[nH]c2c1 (single isomer, unassigned) [Example 14d] | 6.2 | – | –
22 | O=C(/C=C/c1ccc2cn[nH]c2c1)Nc1ccccc1COC1CN(CCF)C1 [Example 30, (E)-N-(2-(((1-(2-fluoroethyl)azetidin-3-yl)oxy)methyl)phenyl)-3-(1H-indazol-6-yl)acrylamide Hydrochloride] | 5.8 | – | –
23 | Cc1cccc(NC(=O)/C=C/c2ccc3cn[nH]c3c2)c1 [Example 21, (E)-3-(1H-indazol-6-yl)-N-(m-tolyl)acrylamide] | 6.5 | – | –
24 | O=C(/C=C/c1ccc2cn[nH]c2c1)Nc1ccccc1OCc1ccccc1 [Example 16, (E)-N-(2-(benzyloxy)phenyl)-3-(1H-indazol-6-yl)acrylamide] | 6.0 | – | –
